Values belong to the molecule of their own block, whether it stands above or below them. Numbered stars: 1 amine (or outer) side, 2 acyl side, 3 side chain; on linkers, the order of the positions; unused ones are H or OH. Bridge positions count the residues as written; N and C are the ends. Square brackets hold non-standard residues; d marks the D form. Side chains are listed from the residue outwards. Ends that are not written are not given here. * marks the point of attachment. C18 diacid = O=C(O)CCCCCCCCCCCCCCCCC(=O)*; γGlu = O=C(O)[C@H](CCC(=O)[*:2])N[*:1]; αMeF = C[C@](N)(Cc1ccccc1)C(=O)O
Key:
[1] = tested on: diet-induced obese (DIO) Sprague-Dawley rats; test: Example 2: 28-day combination study in DIO rats (body weight, EchoMRI body composition); type: in vivo, rat; conditions: LAA 10 nmol/kg, GLP-1/GCG 5.4 nmol/kg or both
Protocol: Study Design: Male diet-induced obese (DIO) Sprague-Dawley rats were fed a high fat diet (45% fat, D12451; Research Diets) for 34 weeks prior to study start. […] Research Diets). […] Average body weight for all DIO rats at start of study was 722.4+10.1 grams. Body composition was measured by EchoMRI on day-7 and day 26. In this experiment, the LAA was that of SEQ ID NO: 11, and the GLP-1/GCG dual-agonist was cotadutide. Data reported as mean±standard error of the mean (SEM); data analysis performed using GraphPad Prism-statistical analysis performed using One-way ANOVA with Tukey ad hoc analysis.

chow fed lean rats = test: Example 3: acute gastric emptying by X-ray fluoroscopic quantification; type: in vivo, rat; conditions: acute SC
Protocol: (§1) Study design: DIO male pair-housed rats fed a 32.5% high-fat diet (D12266B) for 7 weeks reached a mean body weight (BW) of ˜595 g. Rats were dosed SC daily for 28 days with vehicle (Vh), GLP-1/GCG dual agonist (1.5 or 5 nmol/kg), LAA (2.5 or 7.5 nmol/kg), or combination (1.5+2.5 nmol/kg, 1.5+7.5 nmol/kg, 5+2.5 nmol/kg, or 5+7.5 nmol/kg, respectively). Food intake (FI) and BW were measured daily. In chow fed lean rats, gastric emptying (GE) was measured via X-ray fluoroscopic quantification following SC injections of Vh, GLP-1/GCG dual agonist at 1, 3, or 10 nmol/kg or LAA at 1, 3, or 10 nmol/kg. In a subsequent acute GE study, lean rats received a single dose of Vh, GLP-1/GCG dual agonist (2 nmol/kg), LAA (2 nmol/kg) or GLP-1/GCG dual agonist+LAA combination (2+2 nmol/kg). In this experiment, the LAA was that of SEQ ID NO: 11, and the GLP-1/GCG dual-agonist was cotadutide.

DIO Sprague-Dawley rats [2] = test: Example 3: 28-day body weight study in DIO rats; type: in vivo, rat; conditions: day 28
Protocol: Study Design: Male DIO Sprague-Dawley rats were fed a high-fat diet (32.5% kcal fat, D12266B; Research Diets) for approximately 8 weeks prior to study start. Rats were dosed once daily SC for 28 days with Vehicle, GLP-1/GCG (1.5 nmol/kg or 5 nmol/kg), LAA (7.5 nmol/kg) or a combination of GLP-1/GCG and LAA (1.5 and 7.5 nmol/kg, or 5 nmol/kg and 7.5 nmol/kg, respectively) with an n=6/group. Body weight was monitored daily throughout the study. Data reported as mean±standard error of the mean (SEM); data analysis performed using GraphPad Prism-statistical analysis performed using One-way ANOVA with Tukey ad hoc analysis (*p<0.05, **p<0.01, ***0<0.001, ****p<0.0001). In this experiment, the LAA was that of SEQ ID NO: 11, and the GLP-1/GCG dual-agonist was cotadutide.

[3] = tested on: DIO male pair-housed rats; test: Example 3 additional study: 28-day body weight, food intake and organ weights in DIO rats; type: in vivo, rat
Protocol: as §1

DIO Sprague-Dawley rats [4] = test: Example 5: 19-day Q2D body weight study with Fc-linked agonists; type: in vivo, rat; conditions: mono-treatment 0.1 mg/kg Q2D SC, 19 days
Protocol: Study Design: Male DIO Sprague-Dawley rats were fed a high-fat diet (32.5% kcal fat, D12266B; Research Diets) for approximately 6 weeks prior to study start. Rats were dosed every other day (Q2D) SC for 19 days with Vehicle, GLP1-Fc (0.1 or 1 mg/kg), Fc-LAA (0.1 or 2 mg/kg) or a combination of GLP1-Fc and Fc-LAA (0.1+0.1 mg/kg, 0.1+2 mg/kg, 1+0.1 mg/kg or 1+2 mg/kg respectively) with an n=7/group. Body weight was monitored daily through-out study and shown below as % change of vehicle treatment. Data reported as mean±standard error of the mean (SEM). In this experiment, the LAA was an Fc-Amylin, and the GLP-1 agonist was dulaglutide (a GLP-1 agonist covalently linked to an Fc fragment of IgG4).

[5] = biological target: T1, rat amylin receptor (calcitonin receptor plus RAMP3) (rat, UniProt P32214 25-516; Q9JJ73 23-147); test: cell-based or functional assay
T1 sequence (looked up) 1: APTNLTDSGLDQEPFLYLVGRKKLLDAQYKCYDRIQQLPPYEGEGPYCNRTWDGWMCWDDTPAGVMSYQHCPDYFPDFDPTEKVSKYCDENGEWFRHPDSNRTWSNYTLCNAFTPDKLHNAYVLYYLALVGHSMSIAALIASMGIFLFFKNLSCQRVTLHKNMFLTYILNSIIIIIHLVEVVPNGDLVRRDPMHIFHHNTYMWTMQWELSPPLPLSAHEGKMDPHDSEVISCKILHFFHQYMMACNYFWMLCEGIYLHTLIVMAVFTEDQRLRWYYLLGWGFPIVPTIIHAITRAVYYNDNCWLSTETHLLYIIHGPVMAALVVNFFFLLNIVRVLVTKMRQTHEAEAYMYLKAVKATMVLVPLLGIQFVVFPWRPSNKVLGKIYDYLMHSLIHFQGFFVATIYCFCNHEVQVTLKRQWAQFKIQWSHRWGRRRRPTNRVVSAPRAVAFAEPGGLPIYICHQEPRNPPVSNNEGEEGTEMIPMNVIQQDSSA
T1 sequence (looked up) 2: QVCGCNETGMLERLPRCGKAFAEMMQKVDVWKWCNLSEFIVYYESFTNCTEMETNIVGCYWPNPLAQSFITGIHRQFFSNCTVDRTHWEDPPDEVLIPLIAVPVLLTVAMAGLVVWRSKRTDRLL

[6] = biological target: human amylin receptor 3 (hAMY3R; complex of hCTR and hRAMP3) (human, UniProt P30825 2-629; O60896 24-148, limits assumed); test: cell-based or functional assay
Sequence of human amylin receptor 3 (hAMY3R; complex of hCTR and hRAMP3) (P30825 2-629 limits assumed, chain 1 of 2): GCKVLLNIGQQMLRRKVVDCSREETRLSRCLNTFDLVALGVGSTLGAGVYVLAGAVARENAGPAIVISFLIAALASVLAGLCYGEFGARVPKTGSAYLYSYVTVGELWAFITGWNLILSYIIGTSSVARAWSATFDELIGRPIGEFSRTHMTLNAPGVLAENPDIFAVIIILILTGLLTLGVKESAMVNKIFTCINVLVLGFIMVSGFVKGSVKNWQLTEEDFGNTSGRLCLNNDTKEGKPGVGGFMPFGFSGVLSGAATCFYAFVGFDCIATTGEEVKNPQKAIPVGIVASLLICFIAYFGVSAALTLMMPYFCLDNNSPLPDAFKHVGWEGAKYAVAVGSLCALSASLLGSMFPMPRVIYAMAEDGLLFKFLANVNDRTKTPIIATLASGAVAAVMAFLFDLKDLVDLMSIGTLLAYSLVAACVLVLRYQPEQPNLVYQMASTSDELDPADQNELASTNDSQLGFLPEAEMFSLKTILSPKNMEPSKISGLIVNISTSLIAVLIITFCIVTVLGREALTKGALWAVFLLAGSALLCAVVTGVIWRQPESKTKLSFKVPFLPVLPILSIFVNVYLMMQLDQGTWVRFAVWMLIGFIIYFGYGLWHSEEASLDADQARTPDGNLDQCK
Sequence of human amylin receptor 3 (hAMY3R; complex of hCTR and hRAMP3) (O60896 24-148 limits assumed, chain 2 of 2): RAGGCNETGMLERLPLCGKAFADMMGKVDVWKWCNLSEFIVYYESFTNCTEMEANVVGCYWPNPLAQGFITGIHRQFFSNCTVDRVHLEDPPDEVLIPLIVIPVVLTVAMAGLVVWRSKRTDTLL

Molecule: HSQGTFTSD-X10-SEYLDSERARDFVAWLEAGG-acid, wherein X10=Lys[ε-γE-Palmitoyl] [GLP-1/GCG]
body weight loss vs Vehicle ([1]; SC QD, FIG. 1A): lost significantly more body weight than Vehicle treated rats
fat mass change (EchoMRI) ([1]; day 26): lost both fat and lean mass compared to Vehicle treated animals
lean mass change (EchoMRI) ([1]; day 26): lost both fat and lean mass compared to Vehicle treated animals
GE AUC as % of Vehicle (chow fed lean rats; 1 nmol/kg): 85%
GE AUC as % of Vehicle (chow fed lean rats; 3 nmol/kg): 49%
GE AUC as % of Vehicle (chow fed lean rats; 10 nmol/kg): 24%
mean change in body weight normalized to Vehicle (DIO Sprague-Dawley rats [2]; GLP-1/GCG 1.5 nmol/kg SC QD): −8.4%
mean change in body weight normalized to Vehicle (DIO Sprague-Dawley rats [2]; GLP-1/GCG 5 nmol/kg SC QD): −25%
Vh corrected BW change (BW gain) ([3]; 28 days SC daily, GLP-1/GCG dual agonist 1.5 nmol/kg): −8.4%
Vh corrected BW change (BW gain) ([3]; 28 days SC daily, GLP-1/GCG dual agonist 5 nmol/kg): −25.0%
Cumulative FI normalized to Vh ([3]; 28 days SC daily, monotherapy and combination groups): decreased in a dose-dependent manner
Liver lipids (%) vs Vh ([3]; all GLP-1/GCG dual agonist 5 nmol/kg treated groups): lower than Vh
Liver weights vs. Vh ([3]; all combination groups, GLP-1/GCG dual agonist monotherapy at 5 nmol/kg): Liver weights decreased

Molecule: dulaglutide [GLP1-Fc]
body weight change normalized to vehicle (DIO Sprague-Dawley rats [4]): 1.0%

Relative potency ratio (AMY3R/CTR), Rat; cAMP accumulation assay, 0.1% BSA [5]: 1.6 ratio
Relative potency ratio (AMY3R/CTR), Human; cAMP accumulation assay, 0.1% BSA [6]: 0.9 ratio
Molecule: K([γGlu-γGlu-C18 diacid])CNTATCATQRLANFLRHSSNN[αMeF]GPILPPTEVGSNTY-NH2 (disulfide 2-7) [LAA/SARA 1 (lipidated pramlintide analogue of SEQ ID NO: 11)]

Relative potency ratio (AMY3R/CTR), Rat; cAMP accumulation assay, 0.1% BSA [5]: 1 ratio
Relative potency ratio (AMY3R/CTR), Human; cAMP accumulation assay, 0.1% BSA [6]: 1 ratio
Molecule: KCNTATCATQRLANFLVHSSNNFGPILPPTNVGSNTY-NH2 (disulfide 2-7) [Pramlintide]
